Data: patent publication EP1234508A1, “Antiprotozoal methods, compositions and feedstuffs” (UNIVERSITEIT GENT, priority 2001, dated 2002)

Experiment: Onset of egg laying and egg weight in hens treated via drinking water, Example 3
Type: in vivo
Method: The end of the development of the reproductive organ of laying hens starts on the age of 15 weeks and continues during 7 weeks. 10 laying hens were treated with L-arginine via drinking water from the age of 15 weeks till the age of 21 weeks and 10 laying hens were used as a control group. L-arginine was dosed at 15 mg per kg weight per day. L-arginine free base or a L-arginine salt such as hydrochloride may be given daily in a dose of about 5 - 200 mg up to 5 to about 1000 mg per kg bodyweight per day. Light schemes were taken into account: 8 hours light at the age of 15 and 16 weeks old, 9 hours at 17 weeks, 10 hours at 18 weeks, 11 hours at 19 weeks, 12 hours at 20 weeks and 13 hours at 21 weeks old. The treatment with L-arginine was started on the age of 15 weeks. After 40 days of treatment, 3 of 10 chickens treated with L-arginine started laying while one chicken of the control group started laying four days later (Fig. 5). It is unexpected that the onset of egg-laying is earlier than in the control group which is a commercially important aspect of the present invention. The average weight of the eggs (number of eggs ≥ 3) was above 50 g after 46 days in the treated group while in the control group after 54 days the average weight of at least 3 eggs was above 50 g (Fig 6). Again this improvement is unexpected and is of commercial value.

Q: Which chickens started laying (after 40 days of treatment, 15 mg per kg weight per day via drinking water from the age of 15 weeks, Fig. 5) does the source give for `N=C(N)NCCCC(N)C(=O)O` [L-arginine, 2-amino-5-guanidinovaleric acid] here?
A: The chickens started laying was 3 of 10.

Q: What about the “average weight of the eggs (number of eggs ≥ 3)” value (after 46 days in the treated group, 15 mg per kg weight per day via drinking water, Fig. 6) of the same molecule?
A: The value was “above 50 g”.
